# Patent US6602888B2, “Use of α1C specific compounds to treat benign prostatic hyperplasia” (Synaptic Pharmaceutical Corporation, priority 1992, dated 2003)
# Like-named read-outs stand apart in the source and are kept apart here.
# Tests used:
# human 5HT1Dα receptor = target: T1, human 5HT1Dα receptor (Homo sapiens, UniProt P28221); assay: [3H]serotonin competition binding, 5HT1Dα receptor
# T1 construct: host or cells: LM(tk-) clonal cell line Ltk-8-30-84
# Method: 5HT1Dα, 5HT1Dβ, 5HT1E, 5HT1F Receptors: The cell lysates of LM(tk−) clonal cell line stably transfected with the genes encoding each of these 5HT receptor-subtypes were prepared as described above. The cell line for the 5HT1Dα receptor, designated as Ltk-8-30-84, was deposited on Apr. […] The cell for the 5HT1Dβ receptor, designated as Ltk-11, was deposited on Apr. […] The cell line for the 5HT1E receptor, designated 5 HT1E-7, was deposited on Nov. […] The cell line for the 5HT1F receptor, designated L-5-HT1F, was deposited on Dec. […] These preparations were suspended in 50 mM Tris-HCl buffer (pH 7.4 at 37° C.) containing 10 mM MgCl2, 0.2 mM EDTA, 10 μM pargyline, and 0.1% ascorbate.
# calcium channels = target: T2, calcium channels (Rattus norvegicus, UniProt P22002); assay: [3H]nitrendipine competition binding, calcium channels, rat cardiac muscle membranes; details: for Ki: read-out: Calcium Channel (pK1) (converted)
# T2 construct: from tissue; host or cells: rat cardiac muscle membranes
# Method: Briefly, the tissue was minced and homogenized in 50 mM Tris-HCl (pH 7.4) containing 0.1 mM phenylmethylsulfonyl fluoride. The homogenates were centrifuged at 1000 g for 15 minutes, the resulting supernatant was centrifuged at 45,000 g for 15 minutes. The 45,000 g pellet was suspended in buffer and centrifuged a second time.
# human prostate tissue = assay: Antagonism of phenylephrine-induced contraction of human prostatic tissue; details: pA2, phenylephrine-induced contraction, dose-ratio method
# Method: An index of this efficacy can be obtained by determining the potency of α1 antagonists to antagonize the contraction of human prostatic tissue induced by an α1 agonist “in vitro”.
# Prostatic adenomas were obtained at the time of surgery from patients with symptomatic BPH. […] Isometric tension was measured with a Grass Instrument FT03 force transducer interfaced with a computer. Tissue strips were contracted with varying concentrations of phenylephrine after incubating for 20 minutes in the absence and presence of at least three different concentrations of antagonist. Dose-response curves for phenylephrine were constructed, and the antagonist potency (pA2) was estimated by the dose-ratio method.
# [1] = target: T3, human α1B adrenergic receptor (Homo sapiens, UniProt P35368); assay: Radioligand binding, [3H]prazosin, cloned human α1B adrenergic receptor
# T3 sequence (P35368 1-520): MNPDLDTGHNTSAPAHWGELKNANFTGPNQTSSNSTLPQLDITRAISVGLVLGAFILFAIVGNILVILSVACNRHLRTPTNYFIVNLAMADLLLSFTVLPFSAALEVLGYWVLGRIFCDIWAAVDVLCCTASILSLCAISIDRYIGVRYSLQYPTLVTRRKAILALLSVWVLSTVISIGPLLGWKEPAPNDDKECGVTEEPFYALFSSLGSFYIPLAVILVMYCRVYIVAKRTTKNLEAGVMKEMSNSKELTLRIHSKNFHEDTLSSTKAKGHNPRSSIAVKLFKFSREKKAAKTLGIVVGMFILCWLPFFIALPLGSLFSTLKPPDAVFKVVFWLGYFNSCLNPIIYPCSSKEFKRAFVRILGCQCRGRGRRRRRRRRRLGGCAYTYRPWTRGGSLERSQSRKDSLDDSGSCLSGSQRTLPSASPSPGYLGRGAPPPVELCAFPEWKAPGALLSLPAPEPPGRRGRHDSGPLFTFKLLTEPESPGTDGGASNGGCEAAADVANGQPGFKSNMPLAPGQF
# human D2 receptor = target: T4, human D2 receptor (Homo sapiens, UniProt P14416); assay: [3H]spiperone binding, dopamine D2 receptor; details: for Ki: read-out: Dopamine D2 (pK1)
# T4 construct: host or cells: COS-7, transient, DEAE-dextran
# Method: The potency of α1 antagonists at the D2 receptor was determined using membrane preparations from COS-7 cells transfected with the gene encoding the human D2 receptor. The coding region for the human D2 receptor was obtained from a human striatum cDNA library, and cloned into the cloning site of PCDNA 1 eukariotic expression vector. The plasmid DNA for the D2 receptor is designated pcEXV-D2, and was deposited on Nov. […] This construct was transfected into COS-7 cells by the DEAE-dextran method. […] The cell lysates were incubated with [3H]spiperone (2 nM), using 10 μM (+)Butaclamol to determine nonspecific binding.
# [2] = Table 2, rat cardiac muscle membranes
# [3] = Table 2, cloned human receptor, read-out: Serotonin 5HT1Da (pK1)
# T1 sequence (P28221 whole entry): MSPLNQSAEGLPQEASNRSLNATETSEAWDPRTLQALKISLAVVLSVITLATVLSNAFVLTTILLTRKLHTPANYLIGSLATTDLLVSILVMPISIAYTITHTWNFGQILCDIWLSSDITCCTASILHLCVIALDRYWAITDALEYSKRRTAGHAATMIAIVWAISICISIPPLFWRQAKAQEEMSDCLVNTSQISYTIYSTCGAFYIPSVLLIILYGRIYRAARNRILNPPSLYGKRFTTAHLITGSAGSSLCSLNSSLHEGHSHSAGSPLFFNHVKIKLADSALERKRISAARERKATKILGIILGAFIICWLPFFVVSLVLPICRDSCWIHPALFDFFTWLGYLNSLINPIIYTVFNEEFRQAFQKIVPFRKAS
# T2 sequence (P22002 whole entry, other chains not shown): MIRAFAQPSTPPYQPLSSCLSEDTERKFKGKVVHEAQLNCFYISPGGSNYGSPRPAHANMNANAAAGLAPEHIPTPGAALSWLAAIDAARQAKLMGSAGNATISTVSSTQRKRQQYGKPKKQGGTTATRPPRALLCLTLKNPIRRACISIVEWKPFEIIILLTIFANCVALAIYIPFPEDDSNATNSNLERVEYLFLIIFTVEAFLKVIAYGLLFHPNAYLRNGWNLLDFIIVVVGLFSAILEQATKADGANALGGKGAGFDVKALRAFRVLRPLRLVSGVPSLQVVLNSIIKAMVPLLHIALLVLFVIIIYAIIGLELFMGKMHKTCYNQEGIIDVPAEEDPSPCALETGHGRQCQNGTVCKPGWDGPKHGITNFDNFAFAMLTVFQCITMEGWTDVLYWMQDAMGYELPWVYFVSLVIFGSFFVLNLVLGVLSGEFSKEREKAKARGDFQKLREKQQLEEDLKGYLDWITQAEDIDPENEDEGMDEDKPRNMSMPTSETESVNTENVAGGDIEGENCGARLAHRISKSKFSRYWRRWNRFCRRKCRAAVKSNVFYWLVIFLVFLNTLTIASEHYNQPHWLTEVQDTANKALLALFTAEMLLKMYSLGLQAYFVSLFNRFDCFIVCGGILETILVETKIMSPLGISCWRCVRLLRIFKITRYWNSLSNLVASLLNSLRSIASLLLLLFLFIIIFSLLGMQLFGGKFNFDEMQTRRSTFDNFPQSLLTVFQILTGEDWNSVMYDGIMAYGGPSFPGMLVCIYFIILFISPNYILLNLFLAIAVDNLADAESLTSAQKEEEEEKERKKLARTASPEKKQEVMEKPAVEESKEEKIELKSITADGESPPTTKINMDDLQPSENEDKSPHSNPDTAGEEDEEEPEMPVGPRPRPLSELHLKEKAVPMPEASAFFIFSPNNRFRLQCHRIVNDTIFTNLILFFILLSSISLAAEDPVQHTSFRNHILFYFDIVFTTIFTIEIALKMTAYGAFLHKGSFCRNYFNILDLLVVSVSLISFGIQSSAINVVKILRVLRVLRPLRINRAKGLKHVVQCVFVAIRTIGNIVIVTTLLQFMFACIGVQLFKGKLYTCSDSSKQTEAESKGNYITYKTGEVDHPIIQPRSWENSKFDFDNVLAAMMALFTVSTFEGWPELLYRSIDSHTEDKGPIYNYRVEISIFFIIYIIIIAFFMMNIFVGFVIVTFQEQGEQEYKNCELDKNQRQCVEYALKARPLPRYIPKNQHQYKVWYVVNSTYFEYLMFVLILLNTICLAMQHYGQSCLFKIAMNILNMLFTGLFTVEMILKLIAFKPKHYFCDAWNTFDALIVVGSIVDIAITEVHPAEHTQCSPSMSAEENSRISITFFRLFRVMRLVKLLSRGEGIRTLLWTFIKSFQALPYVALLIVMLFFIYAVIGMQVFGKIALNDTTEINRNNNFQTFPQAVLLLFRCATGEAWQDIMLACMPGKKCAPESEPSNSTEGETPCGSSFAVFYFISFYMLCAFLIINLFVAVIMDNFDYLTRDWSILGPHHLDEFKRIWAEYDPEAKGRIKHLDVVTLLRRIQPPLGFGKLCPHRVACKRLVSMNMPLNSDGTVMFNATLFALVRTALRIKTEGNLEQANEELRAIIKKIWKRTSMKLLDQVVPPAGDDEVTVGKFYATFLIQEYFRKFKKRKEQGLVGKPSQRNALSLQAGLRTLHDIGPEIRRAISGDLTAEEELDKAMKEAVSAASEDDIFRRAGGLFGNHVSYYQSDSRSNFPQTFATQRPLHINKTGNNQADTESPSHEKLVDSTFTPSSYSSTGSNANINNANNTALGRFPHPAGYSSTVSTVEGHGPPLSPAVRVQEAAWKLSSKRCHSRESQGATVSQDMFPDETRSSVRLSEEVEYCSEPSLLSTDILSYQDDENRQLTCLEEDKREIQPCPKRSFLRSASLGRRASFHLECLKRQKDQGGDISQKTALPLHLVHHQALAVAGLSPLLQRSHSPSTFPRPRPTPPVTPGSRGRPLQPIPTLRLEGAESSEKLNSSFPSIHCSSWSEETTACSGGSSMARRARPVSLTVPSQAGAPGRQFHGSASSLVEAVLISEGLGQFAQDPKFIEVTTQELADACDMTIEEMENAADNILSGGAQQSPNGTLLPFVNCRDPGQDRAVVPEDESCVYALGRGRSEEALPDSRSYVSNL
# T2 sequence (P54290 25-944 partner limits assumed, other chains not shown): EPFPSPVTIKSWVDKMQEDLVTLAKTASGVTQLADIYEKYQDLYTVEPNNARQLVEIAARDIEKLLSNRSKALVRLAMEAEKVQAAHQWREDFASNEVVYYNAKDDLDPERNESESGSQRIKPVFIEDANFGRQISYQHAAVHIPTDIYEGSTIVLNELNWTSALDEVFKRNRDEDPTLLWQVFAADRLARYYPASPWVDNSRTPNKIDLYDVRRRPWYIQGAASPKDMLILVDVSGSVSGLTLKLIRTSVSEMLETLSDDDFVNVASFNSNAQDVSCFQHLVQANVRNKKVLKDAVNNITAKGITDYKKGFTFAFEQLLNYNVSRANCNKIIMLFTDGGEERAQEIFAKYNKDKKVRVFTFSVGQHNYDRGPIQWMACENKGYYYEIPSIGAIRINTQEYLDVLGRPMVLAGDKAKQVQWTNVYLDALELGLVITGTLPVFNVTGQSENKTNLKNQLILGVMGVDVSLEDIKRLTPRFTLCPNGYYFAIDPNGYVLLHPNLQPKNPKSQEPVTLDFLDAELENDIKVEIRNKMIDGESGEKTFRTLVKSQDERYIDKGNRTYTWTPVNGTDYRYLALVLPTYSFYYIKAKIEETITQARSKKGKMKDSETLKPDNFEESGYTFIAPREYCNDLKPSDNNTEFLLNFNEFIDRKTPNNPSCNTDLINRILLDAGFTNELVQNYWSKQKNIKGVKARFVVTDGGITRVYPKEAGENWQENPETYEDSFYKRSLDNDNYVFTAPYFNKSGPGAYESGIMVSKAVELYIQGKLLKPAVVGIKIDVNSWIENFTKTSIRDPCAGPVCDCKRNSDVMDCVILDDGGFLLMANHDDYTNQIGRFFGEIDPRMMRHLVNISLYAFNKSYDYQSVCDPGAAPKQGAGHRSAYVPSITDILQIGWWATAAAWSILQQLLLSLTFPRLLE
# T2 sequence (P54290 945-1091 partner limits assumed, other chains not shown): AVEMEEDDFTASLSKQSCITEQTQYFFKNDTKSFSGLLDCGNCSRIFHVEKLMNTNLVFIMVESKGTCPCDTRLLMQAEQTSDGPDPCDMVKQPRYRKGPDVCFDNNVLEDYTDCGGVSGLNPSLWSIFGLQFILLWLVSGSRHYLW
# T4 sequence (P14416 whole entry): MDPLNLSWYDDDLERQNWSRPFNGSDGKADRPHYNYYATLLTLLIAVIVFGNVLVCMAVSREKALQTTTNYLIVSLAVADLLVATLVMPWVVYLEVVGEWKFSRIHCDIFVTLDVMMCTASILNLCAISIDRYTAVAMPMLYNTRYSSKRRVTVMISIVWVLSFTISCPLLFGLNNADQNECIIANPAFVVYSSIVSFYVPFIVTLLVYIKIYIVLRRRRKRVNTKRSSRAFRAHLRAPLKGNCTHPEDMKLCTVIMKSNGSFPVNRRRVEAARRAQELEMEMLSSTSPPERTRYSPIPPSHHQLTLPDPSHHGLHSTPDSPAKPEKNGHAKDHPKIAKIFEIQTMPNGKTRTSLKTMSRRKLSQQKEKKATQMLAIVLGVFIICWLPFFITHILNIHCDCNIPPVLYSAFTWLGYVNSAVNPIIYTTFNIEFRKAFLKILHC
Compound,"Serotonin 5HT1Da (pK1) (human 5HT1Dα receptor; Table 2, cloned human receptor)",Human Prostate (pA) (human prostate tissue),"Dopamine D2 (pK1) (human D2 receptor; Table 2, cloned human receptor)",Calcium Channel (pK1) (calcium channels; [2]),"Alpha-1 Adrenergic a1B (pK1) ([1]; Table 2, cloned human receptor)","Ki (human D2 receptor; Table 2, cloned human receptor) [nM]",Ki (calcium channels; [2]) [µM],other results
"4-fluoro-4-(8-fluoro-1,3,4,5-tetrahydro-2H-pyrido[4,3-b]indol-2-yl)butyrophenone hydrochloride [Compound A-30360, reference compound]",<6.0,8.72,–,–,–,–,–,Calcium Channel (pK1) (calcium channels): 5.26; Alpha-1 Adrenergic a1B (pK1) [1]: 7.86; Human Alpha-1 Adrenergic (pK1) a1B [1]: 7.86; Dopamine D2 (pK1) (human D2 receptor): <9.0
"COc1ccccc1N1CCN(CCCNc2c(C)c(=O)n(C)c(=O)n2C)CC1 [5-Methyl-Urapidil, 5-methylurapidil, reference compound]",7.30,8.38,<5.0,–,–,–,–,Alpha-1 Adrenergic a1B (pK1) [1]: 6.77; Human Alpha-1 Adrenergic (pK1) a1B [1]: 6.77
O=C(CCCN1CCC(NC(=O)c2ccccc2)CC1)c1ccc(Cl)cc1 [Compound 7],<6.0,7.63,<7.0,4.79,7.18,–,–,"Human Alpha-1 Adrenergic (pK1) a1B ([1]; Table 1, cloned human receptor): 7.18"
"COC(=O)C1=C(C)NC(C)=C(C(=O)OCCCN2CCC(c3ccccc3)(c3ccccc3)CC2)C1c1ccc([N+](=O)[O-])cc1.Cl (stereo not drawn) [Compound 8, 2,6-Dimethyl-4-(4-nitrophenyl)-1,4-dihydropyridine-3,5-dicarboxylic acid [3-(4,4-diphenylpiperidin-1-yl)propyl] ester methyl ester hydrochloride]",–,7.46,–,6.87,–,> 1000,–,Ki (human 5HT1Dα receptor): > 1000 nM
O=C(CCCN1CCC(NC(=O)c2ccccc2)CC1)c1ccccc1 [Compound 9],<6.0,7.41,<7.0,4.44,6.76,–,–,"Human Alpha-1 Adrenergic (pK1) a1B ([1]; Table 1, cloned human receptor): 6.76"
"COc1ccc(CCNCC2CCc3ccccc3C2)cc1 (stereo not drawn) [Compound 11, 2-[(4-Methoxyphenethyl)aminomethyl]-1,2,3,4-tetrahydronaphthalene]",–,6.64,–,–,7.14,> 1000,6.61,Ki (human 5HT1Dα receptor): > 1000 nM; Human Prostate (pA) (human prostate tissue; listed as SNAP 5036): low; Ki [1]: 72.4 nM
"O=C(NC1CCN(CCc2c[nH]c3ccccc23)CC1)c1ccccc1 [Indoramin, reference compound]",–,7.86,–,–,–,> 10,29.5,Ki (human 5HT1Dα receptor; [3]): > 1000 nM
"C=Cc1sc2ccc(Cl)c3c2c1CN(C)CC3 [SKF-104856, 7-Chloro-2-ethenyl-3,4,5,6-tetrahydro-4-methylthieno[4,3,2-ef][3]benzazepine, reference compound]",–,7.66,–,–,–,> 100,20.9,Ki (human 5HT1Dα receptor; [3]): > 100 nM
